Experimental data taken from patent US11638709B2, “Rucaparib, Talazoparib, Veliparib, Olaparib and AZD 2461 for treating impaired skin wound healing” (AKRIBES BIOMEDICAL GMBH, priority 2017, dated 2023).
Entries after “also recorded” stand apart in the source; their conditions may differ.

How the values were obtained:
[1] = test system: macrophages in co-culture with fibroblasts; assay: Fibroblast-macrophage coculture with wound exudate (FACS, ELISA); assay type: cell-based, human; conditions: wound exudate #78; for percentage of live cells in the FACS CD45-gate (macrophages): FIG. 17 A; for macrophage M2 marker CD206: FIG. 17 B; for proinflammatory cytokine IL-1α induced by wound exudate: FIG. 17 C
Procedure: CD14^+ monocytes, isolated from PBMC of healthy donors by magnetic bead separation were incubated either alone or in the presence of primary human dermal fibroblasts (CellNTec) or fibroblast-derived matrices (FDM). FDM had been generated from primary human dermal fibroblasts by a 3-week incubation with the growth supplements vitamin C or insulin and EGF (vitamin C: 2-phospho-L-ascorbic acid trisodium salt, 100 μg/ml; human EGF, 5 ng/ml; human insulin, 5 μg/ml). Alternatively, fibroblast monolayer cultures can be used as well. After 4 days to a week to allow for macrophage differentiation in the presence or absence of M-CSF (25 ng/ml), the cultures were stimulated overnight with graded concentrations of test compounds in the absence or presence of various dilutions of sterile-filtered WE. IFN-g (50 ng/ml), LPS (100 ng/ml) and IL-4 (25 ng/ml) or combinations thereof served as controls for M1 and M2 macrophage induction. For negative control samples, medium was added instead of specific stimuli. WE were added to the culture medium for overnight stimulation at dilutions ranging from 1:25 to 1:100.
Supernatants were harvested and frozen for cytokine determination by ELISA, and cells were harvested and subjected to FACS analysis, gating on the monocyte population. Geometric means or mean fluorescence intensities (MFI) were used to quantify surface marker expression.
ELISA: CXCL10 and IL-23p19 for M1 macrophages and CCL22 and CCL18 as M2 macrophage markers, IL-1alpha, IL-1beta and TNF-alpha as pro-inflammatory markers indicative of an M1 phenotype.
Cells were harvested and resuspended in FACS buffer (PBS containing 2% FCS). Unspecific antibody binding was prevented by incubation with human Trustain FCR blocking solution (Biolegend, #422302) on ice for 10 minutes. The following fluorchrome-conjugated antibodies from eBioscience (now ThermoFisher Scientific) were used to detect specific surface markers by staining on ice for 30 minutes: CD38-PerCPeFluor710 (#46-0388-42), CD197-APC (#17-1979-42), CD206-AF488 (#53-2069-42), CD209-PerCP Cy5.5 (#45-2099-42). Co-staining with CD45 eFluor (#506 69-0459-42) was used to distinguish macrophages from primary human fibroblasts when analyzed from co-cultures. After washing cells with FACS buffer, they were fixed with 1% paraformaldehyde in PBS and stored at 4° C. in the dark until data were acquired on a Gallios flow cytometer from Beckman Coulter and analyzed with the Kaluza analysis software 1.3.

[2] = test system: primary human dermal fibroblasts (HDF); assay: Primary human dermal fibroblast (HDF) proliferation assay (2D) with or without wound exudate; assay type: cell-based; conditions: for fibroblast proliferation in the absence of WE: FIG. 11, 2D fibroblast culture without WE (control); for HDF proliferation in the presence of WE #78, combined with PDGF / HDF proliferation in the presence of WE #78 / HDF proliferation in the absence of WE: FIG. 14; for HDF proliferation in the presence of WE #78, combined with PDGF: plus PDGF 20 ng/ml; for HDF proliferation in the presence of WE #78 / HDF proliferation in the absence of WE: veliparib 10 μM, talazoparib 1 μM, PDGF 20 ng/ml; for HDF proliferation in the absence of WE / effect on PDGF-induced induction of proliferation in the absence of WE: no WE; for HDF proliferation with wound exudate #78, plus PDGF / HDF proliferation with wound exudate #78: FIG. 15; for HDF proliferation with wound exudate #78, plus PDGF: compound + PDGF 20 ng/ml in medium + WE #78; for HDF proliferation with wound exudate #78: compound in medium + WE #78; for wound exudate-induced inhibition of fibroblast proliferation: FIG. 20, with wound exudate; for effect on PDGF-induced induction of proliferation in the absence of WE: with PDGF
Procedure: Primary human dermal fibroblasts (HDF) were purchased from CELLnTEC, Bern. They were routinely grown in Dulbecco's modified Eagle's medium (DMEM) containing 10% FCS, 2 mM glutamine, and 100 U/ml penicillin/100 μg/ml streptomycin. Media, antibiotics, and glutamine were bought from Lonza. The cells were used at passage 5-15. Cells were trypsinized and seeded at 5000 cells/well in 200 μl into the inner wells of 96-well plates. The outer wells were loaded with sterile water. The cells were allowed to adhere overnight and then incubated for 72 hours at 37° C. under the following conditions: graded compound concentrations or 20 ng/ml PDGF-BB (Tonbo Biosciences) in the absence or presence of different dilutions of sterile-filtered WE in medium. For control samples, 200 μl medium was added instead of specific stimuli. Alternatively, the cells were seeded into 384-well plates at 2500 cells/well directly together with test compounds or growth factors and WE or medium in a total volume of […].
At the end of the 72-hour incubation period, supernatants were removed for the determination of IL-1ß, and the cells were fixed with 4% paraformaldehyde (Morphisto) for 15 minutes at room temperature and washed 3 times with PBS. A control plate was fixed after the overnight adherence of the cells (day 1) to determine the starting cell number.
Total cellular protein was determined as a measure of cell number by staining the fixed cells with sulforhodamine B (SRB, Sigma). A 0.4% SRB solution in 1% acetic acid was added to the wells for 30 minutes. The wells were then washed with 1% acetic acid until the wash solution remained colorless. […] The average absorbance of the sample representing the day 1 starting cell number (for 96-well plates) was subtracted from the absorbance values of the WE-treated cells.
All experiments were carried out in triplicate for each sample and concentration, and means±standard deviation (SD) were used for the evaluation of the experiment. Results are expressed as percentage of control values for unstimulated cells.
Low molecular weight compounds (see list in Table 1) were dissolved in DMSO (Bioreagent for cell culture, Sigma) at 10 mM or 100 mM and diluted at least 1:1000 in medium for cellular assays (final DMSO concentration ≤0.1%).
Cells were incubated with compounds for 72 hours in proliferation assays and up to 8 days for FDM assay (refreshed after 4 days). When compounds were tested for their effect on WE stimulation, the incubation of cells with compounds was started and ended simultaneously with WE-incubation.

Row | Compound | percentage of live cells in the FACS CD45-gate (macrophages) [1] | macrophage M2 marker CD206 [1] | proinflammatory cytokine IL-1α induced by wound exudate [1] | 2D fibroblast culture (HDF proliferation), effect of PARP inhibitors ([2]; FIG. 8, WE from patient #78) | 2D fibroblast culture (HDF proliferation), effect of PARP inhibitors ([2]; FIG. 9, WE from patient #43) | 2D fibroblast culture (HDF proliferation), effect of PARP inhibitors ([2]; FIG. 10, WE from patient #78) | fibroblast proliferation in the absence of WE [2] | 2D fibroblast culture, PARP inhibitor effect ± dexamethasone ± Vit. C ([2]; FIG. 12, WE from patient #78) | 2D fibroblast culture, PARP inhibitor effect ± dexamethasone ± Vit. C ([2]; FIG. 13, WE from patient #43) | HDF proliferation in the presence of WE #78, combined with PDGF [2] | HDF proliferation in the presence of WE #78 [2] | HDF proliferation in the absence of WE [2] | HDF proliferation with wound exudate #78, plus PDGF [2] | HDF proliferation with wound exudate #78 [2] | wound exudate-induced inhibition of fibroblast proliferation [2] | effect on PDGF-induced induction of proliferation in the absence of WE [2] | WE-induced inhibition of fibroblast proliferation (2D HDF proliferation) ([2]; FIG. 1, wound exudate #78 (diabetic patient)) | human dermal fibroblast proliferation (2D), effect of veliparib ([2]; FIG. 2, WE from patients #49, #43, #78, #27) | fibroblast 2D culture, reproducibility of effect ([2]; FIG. 3, WE samples #77 and #78 of one patient (day 1 and day 8), patient on prednisolone)
1 | Cn1ncnc1[C@H]1c2n[nH]c(=O)c3cc(F)cc(c23)N[C@@H]1c1ccc(F)cc1 [Talazoparib] | dose-dependently increased | dose-dependently increased | reduced | strong and consistent positive effect | strong and consistent positive effect | strong and consistent positive effect | weak inhibitory activity; also recorded: either no effect on fibroblast proliferation in the absence of wound exudate, or only a marginal effect | strongly beneficial effects | strongly beneficial effects | additively or synergistically enhanced by PDGF | induce proliferation | no or even an inhibitory effect | even further enhanced by the addition of PDGF | dose-dependent increase of HDF proliferation | enhanced cell proliferation | either had no effect on PDGF-induced induction of proliferation or showed inhibition of the PDGF effect | – | – | –
2 | C[C@]1(c2nc3c(C(N)=O)cccc3[nH]2)CCCN1 [Veliparib, 2-((2R)-2-methylpyrrolidin-2-yl)-1H-benzimidazole-4-carboxamide] | dose-dependently increased | dose-dependently increased | reduced | strong and consistent positive effect | strong and consistent positive effect | strong and consistent positive effect | either no effect on fibroblast proliferation in the absence of wound exudate, or only a marginal effect | strongly beneficial effects | strongly beneficial effects | additively or synergistically enhanced by PDGF | induce proliferation | no or even an inhibitory effect | even further enhanced by the addition of PDGF | dose-dependent increase of HDF proliferation | enhanced cell proliferation | either had no effect on PDGF-induced induction of proliferation or showed inhibition of the PDGF effect | completely reversed inhibition of wound exudate (WE)-induced fibroblast proliferation | most prominent in the two patients with diabetes | reproducible in different samples of the same patient
